Source: ChEMBL document CHEMBL4602676, “Discovery and Development of 3-(6-Chloropyridine-3-yloxymethyl)-2-azabicyclo[3.1.0]hexane Hydrochloride (SUVN-911): A Novel, Potent, Selective, and Orally Active Neuronal Nicotinic Acetylcholine α4β2 Receptor Antagonist for the Treatment of Depression” (J Med Chem, 2020)

Experiments:
[1] = target: T1, Neuronal acetylcholine receptor; alpha4/beta2 (Homo sapiens, UniProt P17787+P43681); experiment: Displacement of [3H]cytisine from human alpha4beta2 nAChR expressed in CHOK1 cell membrane by microbeta scintillation counting method; type: cell membranes, CHO-K1
[2] = Metabolic stability in human liver microsomes assessed as compound metabolism incubated for 30 mins in presence of NADPH by LC-MS/MS analysis; type: ADME, Microsome; conditions: read-out: Drug metabolism
[3] = AUC in Wistar rat at 10 ml/kg, po or 2 ml/kg, iv measured upto 24 hrs by LC-MS/MS analysis; type: ADME, organism-based; conditions: in vivo
[4] = Volume of distribution in Beagle dog at 1 mg/kg, iv by LC-MS/MS analysis; type: ADME, organism-based, Canis lupus familiaris; conditions: in vivo
[5] = Ratio of drug level in brain to plasma in Wistar rat at 10 ml/kg, po or 2 ml/kg, iv measured upto 24 hrs by LC-MS/MS analysis; type: ADME, organism-based; conditions: brain and plasma, read-out: BPR
Rattus norvegicus [6] = experiment: Antidepressant activity in Wistar rat assessed as immobility time at 3.0 mg/kg, po measured for 5 mins by forced swim test (reference value: 241.9 to 281.6 sec); type: functional
Rattus norvegicus [7] = experiment: Antidepressant activity in Wistar rat assessed as reduction in immobility at 3 mg/kg, po administrated for 3 days and measured for 5 mins by forced swim test relative to control; type: functional; set-up: scale not given: the % may be the effect or the level left
Rattus norvegicus [8] = experiment: Antidepressant activity in Wistar rat assessed as reduction in immobility at 10 mg/kg, po administrated for 3 days and measured for 5 mins by forced swim test relative to control; type: functional; set-up: scale not given: the % may be the effect or the level left
[9] = target: T1, Neuronal acetylcholine receptor; alpha4/beta2; experiment: Antagonist activity at alpha4beta2 nAChR (unknown origin) expressed in HEK293 cells assessed as reduction in acetylcholine-induced currents at -80 mV holding potential by whole-cell patch clamp method; type: cell-based
[10] = target: Neuronal acetylcholine receptor; alpha4/beta2 (Rattus norvegicus) (UniProt P09483+P12390); experiment: In vivo receptor occupancy at alpha4beta2 nAChR in Wistar rat pretreated for 15 mins followed by non radiolabelled ZW-104 tracer treatment and measured after 45 mins by LC-MS/MS analysis; type: functional, organism-based
[11] = target: Neuronal acetylcholine receptor; alpha4/beta2 (Rattus norvegicus, UniProt P09483+P12390); experiment: In vivo receptor occupancy at alpha4beta2 nAChR in Wistar rat assessed as brain concentration pretreated for 15 mins followed by non radiolabelled ZW-104 tracer treatment and measured after 45 mins by LC-MS/MS analysis; type: functional, organism-based
[12] = Toxicity in telemetered Beagle dog assessed as change in heart rate up to 25 mg/kg, po; type: organism-based, Canis lupus familiaris; conditions: in vivo
[13] = Genotoxicity in Salmonella typhimurium TA1537 in absence of metabolic activation; type: toxicity; conditions: salmonella enterica subsp. enterica serovar typhimurium
[14] = Genotoxicity in Salmonella typhimurium TA98 in absence of metabolic activation; type: toxicity; conditions: salmonella enterica subsp. enterica serovar typhimurium
Lymphocyte = experiment: Genotoxicity in human peripheral lymphocytes assessed as non clastogenic by chromosomal aberration assay; type: toxicity, cell-based
Cytochrome P450 2B6 = target: T2, Cytochrome P450 2B6 (Homo sapiens, UniProt P20813); experiment: Induction of CYP2B6 (unknown origin); type: ADME
T2 sequence (P20813 whole entry): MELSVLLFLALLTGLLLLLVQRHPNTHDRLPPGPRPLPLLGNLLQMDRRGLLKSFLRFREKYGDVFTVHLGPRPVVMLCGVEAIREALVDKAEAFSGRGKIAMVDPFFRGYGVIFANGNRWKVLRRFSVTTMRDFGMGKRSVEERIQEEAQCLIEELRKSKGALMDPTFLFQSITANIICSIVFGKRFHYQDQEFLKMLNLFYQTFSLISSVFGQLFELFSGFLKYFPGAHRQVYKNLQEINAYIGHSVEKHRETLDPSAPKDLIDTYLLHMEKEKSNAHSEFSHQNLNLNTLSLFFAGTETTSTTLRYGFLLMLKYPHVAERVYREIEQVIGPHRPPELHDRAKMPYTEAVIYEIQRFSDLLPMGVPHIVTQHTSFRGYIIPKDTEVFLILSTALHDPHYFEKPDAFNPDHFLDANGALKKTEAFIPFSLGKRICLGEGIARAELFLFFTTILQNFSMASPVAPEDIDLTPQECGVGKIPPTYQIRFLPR

Cytochrome P450 3A4 = Cytochrome P450 3A4 (Homo sapiens, UniProt P08684); experiment: Induction of CYP3A4 (unknown origin); type: ADME
[15] = target: T3, Solute carrier family 22 member 6 (Homo sapiens, UniProt Q4U2R8); experiment: Inhibition of OAT1 (unknown origin)
T3 sequence (Q4U2R8 whole entry): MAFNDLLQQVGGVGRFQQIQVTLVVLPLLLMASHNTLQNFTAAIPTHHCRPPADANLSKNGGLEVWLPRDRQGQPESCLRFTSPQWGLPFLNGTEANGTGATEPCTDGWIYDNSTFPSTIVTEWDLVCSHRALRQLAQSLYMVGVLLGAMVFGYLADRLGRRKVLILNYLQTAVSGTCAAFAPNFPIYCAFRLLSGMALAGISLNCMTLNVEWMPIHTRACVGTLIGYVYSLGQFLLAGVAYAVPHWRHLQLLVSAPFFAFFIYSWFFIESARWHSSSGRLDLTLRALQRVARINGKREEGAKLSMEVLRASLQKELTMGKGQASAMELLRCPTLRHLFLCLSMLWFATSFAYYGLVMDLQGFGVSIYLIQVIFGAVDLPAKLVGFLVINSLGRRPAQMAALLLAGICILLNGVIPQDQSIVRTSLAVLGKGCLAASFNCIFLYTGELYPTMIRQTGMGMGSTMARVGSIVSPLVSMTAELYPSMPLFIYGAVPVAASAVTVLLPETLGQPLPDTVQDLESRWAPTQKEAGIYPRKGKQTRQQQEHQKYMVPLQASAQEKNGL

[16] = target: T4, Solute carrier family 22 member 1 (Homo sapiens, UniProt O15245); experiment: Inhibition of OCT1 (unknown origin)
T4 sequence (O15245 whole entry): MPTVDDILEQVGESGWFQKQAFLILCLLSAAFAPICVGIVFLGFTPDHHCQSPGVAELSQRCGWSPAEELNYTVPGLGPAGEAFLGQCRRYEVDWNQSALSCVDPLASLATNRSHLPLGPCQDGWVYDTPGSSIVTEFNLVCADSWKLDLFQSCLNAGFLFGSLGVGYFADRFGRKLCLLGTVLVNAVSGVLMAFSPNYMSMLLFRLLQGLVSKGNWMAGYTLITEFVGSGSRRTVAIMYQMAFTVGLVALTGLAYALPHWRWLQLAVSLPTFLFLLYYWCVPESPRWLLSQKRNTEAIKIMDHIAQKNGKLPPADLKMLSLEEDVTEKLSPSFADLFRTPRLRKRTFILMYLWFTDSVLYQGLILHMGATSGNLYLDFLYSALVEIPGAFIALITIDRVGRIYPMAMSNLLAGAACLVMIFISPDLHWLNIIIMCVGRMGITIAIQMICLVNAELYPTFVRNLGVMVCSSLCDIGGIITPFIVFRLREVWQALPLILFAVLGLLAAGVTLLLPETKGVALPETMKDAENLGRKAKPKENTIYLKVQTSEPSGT

[17] = Genotoxicity in Salmonella typhimurium TA1535 in presence of metabolic activation; type: toxicity; conditions: salmonella enterica subsp. enterica serovar typhimurium
[18] = Genotoxicity in Salmonella typhimurium TA100 in presence of metabolic activation; type: toxicity; conditions: salmonella enterica subsp. enterica serovar typhimurium

T1 sequence (P17787 whole entry): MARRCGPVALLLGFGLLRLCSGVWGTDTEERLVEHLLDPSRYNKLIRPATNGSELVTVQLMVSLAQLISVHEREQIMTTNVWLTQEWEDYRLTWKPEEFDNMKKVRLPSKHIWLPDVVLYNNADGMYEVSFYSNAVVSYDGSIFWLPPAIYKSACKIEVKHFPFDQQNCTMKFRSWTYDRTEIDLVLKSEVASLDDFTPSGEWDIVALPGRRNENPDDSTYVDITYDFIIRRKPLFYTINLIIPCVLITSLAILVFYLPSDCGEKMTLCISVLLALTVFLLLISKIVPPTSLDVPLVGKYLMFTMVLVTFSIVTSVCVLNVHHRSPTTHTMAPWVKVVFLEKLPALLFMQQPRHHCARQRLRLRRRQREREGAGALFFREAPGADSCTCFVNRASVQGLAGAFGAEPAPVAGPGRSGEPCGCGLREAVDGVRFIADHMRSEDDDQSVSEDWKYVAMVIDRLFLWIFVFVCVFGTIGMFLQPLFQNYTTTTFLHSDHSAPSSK
T1 sequence (P43681 whole entry): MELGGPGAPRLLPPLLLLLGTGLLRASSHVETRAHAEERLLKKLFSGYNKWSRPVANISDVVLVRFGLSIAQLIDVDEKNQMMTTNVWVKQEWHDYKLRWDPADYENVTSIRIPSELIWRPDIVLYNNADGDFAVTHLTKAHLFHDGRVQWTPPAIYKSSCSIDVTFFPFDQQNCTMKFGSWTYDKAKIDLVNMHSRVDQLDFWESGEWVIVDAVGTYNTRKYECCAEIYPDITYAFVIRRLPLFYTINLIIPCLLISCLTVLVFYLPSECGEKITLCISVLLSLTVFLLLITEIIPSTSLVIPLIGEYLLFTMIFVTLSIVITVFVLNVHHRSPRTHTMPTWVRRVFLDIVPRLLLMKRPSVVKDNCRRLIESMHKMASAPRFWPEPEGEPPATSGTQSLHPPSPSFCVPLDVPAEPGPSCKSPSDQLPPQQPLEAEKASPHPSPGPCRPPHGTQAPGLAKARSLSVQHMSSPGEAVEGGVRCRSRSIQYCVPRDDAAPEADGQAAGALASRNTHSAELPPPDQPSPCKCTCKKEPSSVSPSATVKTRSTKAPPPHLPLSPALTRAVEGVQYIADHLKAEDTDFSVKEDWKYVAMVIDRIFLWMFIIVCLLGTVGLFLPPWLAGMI
Neuronal acetylcholine receptor; alpha4/beta2 (Rattus norvegicus, UniProt P09483+P12390), sequence (P09483 whole entry): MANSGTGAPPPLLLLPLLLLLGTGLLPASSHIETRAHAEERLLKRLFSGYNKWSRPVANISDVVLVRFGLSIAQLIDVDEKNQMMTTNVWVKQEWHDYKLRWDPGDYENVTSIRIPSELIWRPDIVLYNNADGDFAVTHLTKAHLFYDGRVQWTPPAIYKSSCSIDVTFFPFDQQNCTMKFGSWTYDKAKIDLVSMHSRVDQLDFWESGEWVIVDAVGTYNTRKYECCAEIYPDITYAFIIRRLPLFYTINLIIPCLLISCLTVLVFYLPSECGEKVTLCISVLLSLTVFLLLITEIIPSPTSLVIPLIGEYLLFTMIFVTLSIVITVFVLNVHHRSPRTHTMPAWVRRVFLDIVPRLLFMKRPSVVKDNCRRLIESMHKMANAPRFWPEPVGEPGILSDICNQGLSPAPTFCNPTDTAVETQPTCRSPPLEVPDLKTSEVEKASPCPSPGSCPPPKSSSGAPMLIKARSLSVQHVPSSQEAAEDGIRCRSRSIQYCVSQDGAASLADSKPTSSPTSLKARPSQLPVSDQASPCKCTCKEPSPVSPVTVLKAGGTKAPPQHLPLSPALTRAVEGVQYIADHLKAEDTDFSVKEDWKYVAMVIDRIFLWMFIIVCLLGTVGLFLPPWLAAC
Neuronal acetylcholine receptor; alpha4/beta2 (Rattus norvegicus, UniProt P09483+P12390), sequence (P12390 whole entry): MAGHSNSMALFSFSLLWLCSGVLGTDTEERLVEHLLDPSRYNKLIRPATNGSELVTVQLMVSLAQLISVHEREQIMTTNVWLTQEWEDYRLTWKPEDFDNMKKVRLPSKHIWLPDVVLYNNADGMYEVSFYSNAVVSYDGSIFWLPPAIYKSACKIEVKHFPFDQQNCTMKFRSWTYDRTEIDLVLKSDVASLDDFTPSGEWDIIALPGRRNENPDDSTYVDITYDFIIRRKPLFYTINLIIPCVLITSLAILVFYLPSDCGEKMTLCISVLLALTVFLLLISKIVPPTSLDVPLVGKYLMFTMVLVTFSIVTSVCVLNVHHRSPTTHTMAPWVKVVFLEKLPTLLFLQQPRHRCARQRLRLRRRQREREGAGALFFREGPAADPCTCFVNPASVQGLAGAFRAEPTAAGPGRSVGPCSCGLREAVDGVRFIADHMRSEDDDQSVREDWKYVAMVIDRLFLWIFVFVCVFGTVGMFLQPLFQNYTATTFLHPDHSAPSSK
Cytochrome P450 3A4, sequence (P08684 whole entry): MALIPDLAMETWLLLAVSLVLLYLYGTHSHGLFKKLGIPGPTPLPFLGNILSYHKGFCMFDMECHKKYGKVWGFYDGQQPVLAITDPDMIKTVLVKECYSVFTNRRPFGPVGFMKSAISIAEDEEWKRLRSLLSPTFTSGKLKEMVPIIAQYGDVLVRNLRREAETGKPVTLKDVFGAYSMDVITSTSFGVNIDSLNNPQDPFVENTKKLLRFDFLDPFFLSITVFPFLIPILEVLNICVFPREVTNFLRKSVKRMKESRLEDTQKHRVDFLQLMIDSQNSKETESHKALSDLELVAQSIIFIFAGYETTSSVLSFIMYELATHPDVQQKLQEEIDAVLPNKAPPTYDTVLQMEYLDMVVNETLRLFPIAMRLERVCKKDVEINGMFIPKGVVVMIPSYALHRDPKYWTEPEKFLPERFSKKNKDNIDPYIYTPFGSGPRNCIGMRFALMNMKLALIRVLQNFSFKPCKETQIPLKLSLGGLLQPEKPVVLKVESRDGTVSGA

Cl.Clc1ccc(OC[C@@H]2C[C@H]3C[C@H]3N2)cn1
Ki [1]: 0.0015 µM | metabolised at 0.5 h [2]: 33.4% | AUC at 24 h [3]: 3510 ng·h/mL | Vd [4]: 1.3 L/kg | Kp at 24 h [5]: 2.34 | Time (Rattus norvegicus [6]): 155.9 s | Activity (Rattus norvegicus [7]): 35.81% | Activity (Rattus norvegicus [8]): 66.4% | IC50 [9]: 7.31 µM | Activity [10]: Dose-dependent effect | ED50 [10]: 1.61 µM | EC50 [11]: 334 µM | Activity [12]: Non-Toxic | Activity [13]: Non-Toxic | Activity [14]: Non-Toxic | Activity (Lymphocyte): Non-Toxic | Activity (Cytochrome P450 2B6): Not Active | Activity (Cytochrome P450 3A4): Not Active | inhibition (INH) [15]: Not Active | inhibition (INH) [16]: Not Active | Activity [17]: Non-Toxic | Activity [18]: Non-Toxic
